From patent publication US9102638B2, “Amidobenzothiazoles and process for the preparation thereof” (COUNCIL OF SCIENTIFIC & INDUSTRIAL RESEARCH, priority 2011, dated 2015)

Legend:
Type in all cases: cell-based
LOX IMVI = assay: In vitro cytotoxicity, NCI screen: LOX IMVI (Melanoma); conditions: Homo sapiens, Melanoma panel, NCI protocol, read-out: GI50 values (μM conc.)
Experimental: (§1) The in vitro anticancer activity studies for these amidobenzothiazoles were carried out at the National Cancer Institute, Maryland, USA.
(§2) The amidobenzothiazoles have been tested against sixty human tumor cell lines derived from nine cancer types (leukemia cancer cell line, non-small cell lung cancer cell line, colon cancer cell line, CNS cancer cell line, melanoma cancer cell line, ovarian cancer cell line, renal cancer cell line, prostate cancer cell line and breast cancer cell lines). For these compounds results are expressed in GI50 values of that particular cancer cell at micro molar (μM) concentration as per NCI protocol.

HT29 = assay: In vitro cytotoxicity, NCI screen: HT29 (Colon); conditions: Homo sapiens, HT-29; HT29, Colon panel, NCI protocol; read-out: GI50 values (μM conc.)
Experimental: as §1, §2

SN12C = assay: In vitro cytotoxicity, NCI screen: SN12C (Renal); conditions: Homo sapiens, Renal panel, NCI protocol, read-out: GI50 values (μM conc.)
Experimental: as §1, §2

SK-MEL-5 = assay: In vitro cytotoxicity, NCI screen: SK-MEL-5 (Melanoma); conditions: Homo sapiens; SK-MEL-5, Melanoma panel, NCI protocol; read-out: GI50 values (μM conc.)
Experimental: as §1, §2

KM12 = assay: In vitro cytotoxicity, NCI screen: KM12 (Colon); conditions: Homo sapiens; KM12, Colon panel, NCI protocol; read-out: GI50 values (μM conc.)
Experimental: as §1, §2

SF-539 = assay: In vitro cytotoxicity, NCI screen: SF-539 (CNS); conditions: Homo sapiens, read-out: GI50 values (μM conc.)
Experimental: as §1, §2

NCI-H23 = assay: In vitro cytotoxicity, NCI screen: NCI-H23 (Non-small cell lung); conditions: Homo sapiens; NCI-H23, Non-small cell lung panel, NCI protocol; read-out: GI50 values (μM conc.)
Experimental: as §1, §2

UO-31 = assay: In vitro cytotoxicity, NCI screen: UO-31 (Renal); conditions: Homo sapiens; UO-31, Renal panel, NCI protocol; read-out: GI50 values (μM conc.)
Experimental: as §1, §2

NCI/ADR-RES = assay: In vitro cytotoxicity, NCI screen: NCI/ADR-RES (Ovarian); conditions: Homo sapiens, Ovarian panel, NCI protocol, read-out: GI50 values (μM conc.)
Experimental: as §1, §2

NCI-H226 = assay: In vitro cytotoxicity, NCI screen: NCI-H226 (Non-small cell lung); conditions: Homo sapiens; NCI-H226, Non-small cell lung panel, NCI protocol; read-out: GI50 values (μM conc.)
Experimental: as §1, §2

SR = assay: In vitro cytotoxicity, NCI screen: SR (Leukemia); conditions: Homo sapiens, Leukemia panel, NCI protocol, read-out: GI50 values (μM conc.)
Experimental: as §1, §2

UACC-62 = assay: In vitro cytotoxicity, NCI screen: UACC-62 (Melanoma); conditions: Homo sapiens; UACC-62, Melanoma panel, NCI protocol; read-out: GI50 values (μM conc.)
Experimental: as §1, §2

HCT-15 = assay: In vitro cytotoxicity, NCI screen: HCT-15 (Colon); conditions: Homo sapiens; HCT-15, Colon panel, NCI protocol; read-out: GI50 values (μM conc.)
Experimental: as §1, §2

IGROV1 = assay: In vitro cytotoxicity, NCI screen: IGROV1 (Ovarian); conditions: Homo sapiens, IGROV-1; IGROV1, Ovarian panel, NCI protocol; read-out: GI50 values (μM conc.)
Experimental: as §1, §2

K-562 = assay: In vitro cytotoxicity, NCI screen: K-562 (Leukemia); conditions: Homo sapiens, K562; read-out: GI50 values (μM conc.)
Experimental: as §1, §2

MDA-MB-231/ATCC = assay: In vitro cytotoxicity, NCI screen: MDA-MB-231/ATCC (Breast); conditions: Homo sapiens, Breast panel, NCI protocol, read-out: GI50 values (μM conc.)
Experimental: as §1, §2

CCRF-CEM = assay: In vitro cytotoxicity, NCI sixty cell line screen: CCRF-CEM (Leukemia); conditions: Homo sapiens, Leukemia panel, NCI protocol, read-out: GI50 values (μM conc.)
Experimental: as §1, §2

SF-268 = assay: In vitro cytotoxicity, NCI screen: SF-268 (CNS); conditions: Homo sapiens, read-out: GI50 values (μM conc.)
Experimental: as §1, §2

M14 = assay: In vitro cytotoxicity, NCI screen: M14 (Melanoma); conditions: Homo sapiens; M14, Melanoma panel, NCI protocol; read-out: GI50 values (μM conc.)
Experimental: as §1, §2

COLO-205 = assay: In vitro cytotoxicity, NCI screen: COLO-205 (Colon); conditions: Homo sapiens; COLO-205, Colon panel, NCI protocol; read-out: GI50 values (μM conc.)
Experimental: as §1, §2

RXF 393 = assay: In vitro cytotoxicity, NCI screen: RXF 393 (Renal); conditions: Homo sapiens; RXF 393, Renal panel, NCI protocol; read-out: GI50 values (μM conc.)
Experimental: as §1, §2

DU-145 = assay: In vitro cytotoxicity, NCI screen: DU-145 (Prostate); conditions: Homo sapiens, read-out: GI50 values (μM conc.)
Experimental: as §1, §2

T-47D = assay: In vitro cytotoxicity, NCI screen: T-47D (Breast); conditions: Homo sapiens, T47D, Breast panel, NCI protocol, read-out: GI50 values (μM conc.)
Experimental: as §1, §2

NCI-H460 = assay: In vitro cytotoxicity, NCI screen: NCI-H460 (Non-small cell lung); conditions: Homo sapiens; NCI-H460, Non-small cell lung panel, NCI protocol; read-out: GI50 values (μM conc.)
Experimental: as §1, §2

MDA-MB-435 = assay: In vitro cytotoxicity, NCI screen: MDA-MB-435 (Melanoma); conditions: Homo sapiens; MDA-MB-435, Melanoma panel, NCI protocol; read-out: GI50 values (μM conc.)
Experimental: as §1, §2

HCC-2998 = assay: In vitro cytotoxicity, NCI screen: HCC-2998 (Colon); conditions: Homo sapiens; HCC-2998, Colon panel, NCI protocol; read-out: GI50 values (μM conc.)
Experimental: as §1, §2

MALME-3M = assay: In vitro cytotoxicity, NCI screen: MALME-3M (Melanoma); conditions: Homo sapiens, Melanoma panel, NCI protocol, read-out: GI50 values (μM conc.)
Experimental: as §1, §2

A498 = assay: In vitro cytotoxicity, NCI screen: A498 (Renal); conditions: Homo sapiens; A498, Renal panel, NCI protocol; read-out: GI50 values (μM conc.)
Experimental: as §1, §2

SK-MEL-2 = assay: In vitro cytotoxicity, NCI screen: SK-MEL-2 (Melanoma); conditions: Homo sapiens; SK-MEL-2, Melanoma panel, NCI protocol; read-out: GI50 values (μM conc.)
Experimental: as §1, §2

SNB-19 = assay: In vitro cytotoxicity, NCI screen: SNB-19 (CNS); conditions: Homo sapiens; SNB-19, CNS panel, NCI protocol; read-out: GI50 values (μM conc.)
Experimental: as §1, §2

OVCAR-5 = assay: In vitro cytotoxicity, NCI screen: OVCAR-5 (Ovarian); conditions: Homo sapiens; OVCAR-5, Ovarian panel, NCI protocol; read-out: GI50 values (μM conc.)
Experimental: as §1, §2

SK-MEL-28 = assay: In vitro cytotoxicity, NCI screen: SK-MEL-28 (Melanoma); conditions: Homo sapiens; SK-MEL-28, Melanoma panel, NCI protocol; read-out: GI50 values (μM conc.)
Experimental: as §1, §2

Row | SMILES | GI50 (LOX IMVI) | GI50 (HT29) | GI50 (SN12C) | GI50 (SK-MEL-5) | GI50 (SF-539) | GI50 (NCI-H23) | GI50 (UO-31) | GI50 (NCI/ADR-RES) | GI50 (NCI-H226) | GI50 (HCT-15) | GI50 (IGROV1) | GI50 (MDA-MB-231/ATCC) | GI50 (SF-268) | GI50 (COLO-205) | GI50 (RXF 393) | GI50 (DU-145) | GI50 (T-47D) | GI50 (MDA-MB-435) | GI50 (HCC-2998) | GI50 (A498) | also measured
1 | COc1ccc(/C=C\c2cc(OC)c(OC)c(OC)c2)cc1OCC(=O)Nc1nc2ccccc2s1 [Compound 8a, N1-(1,3-benzothiazol-2-yl)-2-{2-methoxy-5-[(Z)-2-(3,4,5-trimethoxyphenyl)-1-ethenyl]phenoxy}acetamide] | 0.067 µM | 3.16 µM | 0.37 µM | 0.036 µM | 0.045 µM | 0.11 µM | 0.58 µM | 0.033 µM | 0.27 µM | 0.048 µM | 0.21 µM | 0.19 µM | 0.18 µM | 2.83 µM | 0.05 µM | 0.1 µM | 1 µM | 0.019 µM | 0.37 µM | 0.36 µM | GI50 (KM12): 0.058 µM; GI50 (SR): 0.037 µM; GI50 (UACC-62): 0.063 µM; GI50 (K-562): 0.042 µM; GI50 (CCRF-CEM): 0.078 µM; GI50 (M14): 0.072 µM; GI50 (NCI-H460): 0.052 µM; GI50 (MALME-3M): 1.99 µM; GI50 (SK-MEL-2): 0.18 µM
2 | COc1ccc(/C=C\c2cc(OC)c(OC)c(OC)c2)cc1OCC(=O)Nc1nc2ccc(F)cc2s1 [Compound 8e, N1-(6-fluoro-1,3-benzothiazol-2-yl)-2-{2-methoxy-5-[(Z)-2-(3,4,5-trimethoxyphenyl)-1-ethenyl]phenoxy}acetamide] | 3.23 µM | 9.63 µM | 4.61 µM | 1.76 µM | 4.51 µM | 4.26 µM | 2.56 µM | 2.55 µM | 5.6 µM | 8.19 µM | 4.17 µM | 9.34 µM | 7.23 µM | 7.78 µM | 6.29 µM | 8.97 µM | 3.39 µM | 0.33 µM | > 100 µM | 6.25 µM | GI50 (KM12): 4.78 µM; GI50 (SNB-19): > 100 µM; GI50 (OVCAR-5): > 100 µM; GI50 (SK-MEL-28): > 100 µM; GI50 (SR): 2.19 µM; GI50 (UACC-62): 4.05 µM; GI50 (K-562): 3.62 µM; GI50 (CCRF-CEM): 3.7 µM; GI50 (M14): 6.82 µM; GI50 (NCI-H460): 4.36 µM; GI50 (MALME-3M): 5.22 µM; GI50 (SK-MEL-2): 8.46 µM
3 | COc1ccc(/C=C\c2cc(OC)c(OC)c(OC)c2)cc1OCC(=O)Nc1nc2ccc(OC(F)(F)F)cc2s1 [Compound 8j, N1-(6-(trifluoromethoxy)-1,3-benzothiazol-2-yl)-2-{2-methoxy-5-[(Z)-2-(3,4,5-trimethoxyphenyl)-1-ethenyl]phenoxy}acetamide] | 4.77 µM | > 100 µM | 6.42 µM | 3.26 µM | 2.28 µM | 4.39 µM | 4.37 µM | 2.7 µM | 4.3 µM | 3.23 µM | 5.64 µM | 5.16 µM | 6.01 µM | 43.3 µM | 2.65 µM | 4.11 µM | 3.95 µM | 1.93 µM | 17.1 µM | 3.61 µM | GI50 (KM12): 4.48 µM; GI50 (SNB-19): 7.08 µM; GI50 (OVCAR-5): 3.12 µM; GI50 (SK-MEL-28): 4.57 µM; GI50 (SR): 3.55 µM; GI50 (UACC-62): 5.11 µM; GI50 (K-562): 3.43 µM; GI50 (CCRF-CEM): 4.12 µM; GI50 (M14): 4.36 µM; GI50 (NCI-H460): 4.11 µM; GI50 (SK-MEL-2): 3.29 µM
4 | COc1ccc(C2CC(c3cc(OC)c(OC)c(OC)c3)=NN2C(C)=O)cc1OCC(=O)Nc1nc2ccc(C(F)(F)F)cc2s1 (stereo not drawn) [Compound 10i, N1-(6-(trifluoromethyl)-1,3-benzothiazol-2-yl)-2-{5-[1-acetyl-3-(3,4,5-trimethoxyphenyl)-4,5-dihydro-1H-5-pyrazolyl]-2-methoxyphenoxy}acetamide] | 3.36 µM |  | 3.31 µM |  | 1.75 µM | 3.76 µM | 1.93 µM | 3.13 µM | 2.22 µM | 9.26 µM | 5.3 µM | 3.11 µM | 3.84 µM | 3.94 µM | 2.09 µM | 1.82 µM | 2.75 µM | 3.08 µM | > 100 µM | 2.78 µM | GI50 (SNB-19): 11 µM; GI50 (OVCAR-5): 28.2 µM; GI50 (SK-MEL-28): 3.56 µM; GI50 (MALME-3M): 6.44 µM
